We go through 4 molecules from publication PMC9777025, “Silibinin Overcomes EMT-Driven Lung Cancer Resistance to New-Generation ALK Inhibitors” (Cancers, 2022).

In assay [1] the test system is H2228. Put plainly: cells. Set-up: species or system H2228/CR, H3122, H3122/CR; MTT cell viability assay, absorbance at 570 nm, IC50 by interpolation. The note with it: Homo sapiens, NCI-H2228; without silibinin. How it is done:
(§1) 2.5. Cell Viability Assay The cell viability effects of ALK–TKIs and silibinin were determined using the colorimetric MTT (3-4,5-dimethylthiazol-2-yl-2,5-diphenyl-tetrazolium bromide) reduction assay. Dose-response curves to graded concentrations of drugs were plotted as a percentage of the control cell absorbance, which was obtained from control cells containing the vehicle processed simultaneously. For each treatment, cell viability was evaluated using the following equation: (OD570 of the treated sample/OD570 of the untreated sample) × 100. Sensitivity to agents was expressed in terms of the concentrations required for a 50% (IC50) reduction in cell viability. Since the percentage of control absorbance was considered to be the surviving fraction of cells, the IC50 values were defined as the concentration of drug that produced a 50% reduction in control absorbance (by interpolation).

For assay [2], the system named is T1, H2228/CR.
T1 construct: crizotinib-resistant H2228
Put plainly: cells. Set-up: species or system H3122, H3122/CR; MTT cell viability assay, absorbance at 570 nm, IC50 by interpolation. The note with it: Homo sapiens, NCI-H2228; without silibinin. The protocol: as §1

In assay [3] the test system is H3122. Put plainly: cells. Set-up: species or system H2228, H2228/CR, H3122/CR; MTT cell viability assay, absorbance at 570 nm, IC50 by interpolation. The note with it: Homo sapiens, NCI-H3122; without silibinin. How it is done: as §1
The test system of assay [4] is T2, H3122/CR.
T2 construct: crizotinib-resistant H3122
Put plainly: cells. As to conditions: Homo sapiens, NCI-H3122; without silibinin. Set-up: species or system H2228, H2228/CR; MTT cell viability assay, absorbance at 570 nm, IC50 by interpolation. How it is done: as §1

For assay [5], the target named is T3, TGFβR1/ALK5 (Homo sapiens, UniProt P36897).
T3 construct: gene TGFBR1
T3 sequence (P36897 34-503): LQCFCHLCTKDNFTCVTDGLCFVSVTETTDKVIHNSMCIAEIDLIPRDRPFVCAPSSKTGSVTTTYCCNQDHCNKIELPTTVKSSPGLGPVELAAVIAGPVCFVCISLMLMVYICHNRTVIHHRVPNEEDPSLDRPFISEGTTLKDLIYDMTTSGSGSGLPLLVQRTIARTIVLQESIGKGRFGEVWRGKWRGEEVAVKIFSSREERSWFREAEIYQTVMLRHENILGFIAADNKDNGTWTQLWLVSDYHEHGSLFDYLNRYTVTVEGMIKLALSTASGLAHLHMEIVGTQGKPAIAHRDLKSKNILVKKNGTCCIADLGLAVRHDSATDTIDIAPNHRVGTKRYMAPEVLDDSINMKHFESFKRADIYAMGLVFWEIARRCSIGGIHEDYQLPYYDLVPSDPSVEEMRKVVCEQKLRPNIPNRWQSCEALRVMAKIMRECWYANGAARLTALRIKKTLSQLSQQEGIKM
Put plainly: LanthaScreen Eu kinase binding assay (TR-FRET tracer displacement), 10-point titration. (In general: TR-FRET usually uses a lanthanide donor and a delayed reading to cut background.)

For assay [6], the target named is T4, TGFβR2 (Homo sapiens, UniProt P37173).
T4 construct: gene TGFBR2
Described as above.

T4 sequence (P37173 23-567): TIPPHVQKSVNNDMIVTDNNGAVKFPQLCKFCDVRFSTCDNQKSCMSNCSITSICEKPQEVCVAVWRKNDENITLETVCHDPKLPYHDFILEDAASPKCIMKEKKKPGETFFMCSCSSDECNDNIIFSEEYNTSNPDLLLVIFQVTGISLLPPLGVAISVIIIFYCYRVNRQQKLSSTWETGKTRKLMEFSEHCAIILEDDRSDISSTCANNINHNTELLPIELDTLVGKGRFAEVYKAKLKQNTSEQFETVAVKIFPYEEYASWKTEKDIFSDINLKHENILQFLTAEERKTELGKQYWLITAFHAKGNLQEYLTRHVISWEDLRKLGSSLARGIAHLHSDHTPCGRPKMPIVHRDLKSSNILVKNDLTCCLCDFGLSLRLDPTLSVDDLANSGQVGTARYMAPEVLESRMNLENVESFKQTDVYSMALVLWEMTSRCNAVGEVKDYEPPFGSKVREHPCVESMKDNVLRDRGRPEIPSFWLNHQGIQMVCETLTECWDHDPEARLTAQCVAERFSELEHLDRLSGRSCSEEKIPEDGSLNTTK

In the case of `COc1cc(N2CCC(N3CCN(C)CC3)CC2)ccc1Nc1ncc(Cl)c(Nc2ccccc2P(C)(C)=O)n1` [brigatinib], the IC50 in assay [1] came to 500 nM; in assay [2], 3800 nM; in assay [3], 20 nM; in assay [4], 120 nM.
On the same counts, the results for `C[C@H]1Oc2cc(cnc2N)-c2c(nn(C)c2C#N)CN(C)C(=O)c2ccc(F)cc21` [lorlatinib] are 1000 nM, 83000 nM, 4 nM and 20 nM.
`COc1cc(C2Oc3cc([C@H]4Oc5cc(O)cc(O)c5C(=O)[C@@H]4O)ccc3OC2CO)ccc1O` (mixture of isomers) [silibinin]: the IC50 in assay [5] came out at 70000 nM; in assay [6], 56000 nM.
For `C[C@@H](Oc1cc(-c2cnn(C3CCNCC3)c2)cnc1N)c1c(Cl)ccc(F)c1Cl` [crizotinib], the IC50 in assay [1] amounted to 2100 nM; in assay [2], 10600 nM; in assay [3], 290 nM; in assay [4] it was 1080 nM.

In general, IC50 refers to the concentration at which inhibition is half-maximal.
